Structures can show the parent of a compound that is named as a salt.
Key:
Klebsiella aerogenes A = test: MIC / synergism, microtitre method (Example 42); format: cell-based; conditions: method of Example 42 (μg/ml)
[1] = tested on: Klebsiella aerogenes E 70; test: MIC / synergism, microtitre method (Example 42); format: cell-based; conditions: method of Example 42 (μg/ml)
Klebsiella aerogenes 62 = test: MIC / synergism, microtitre method (Example 42); format: cell-based; conditions: method of Example 42 (μg/ml)
[2] = tested on: Staphylococcus aureus Russell; test: MIC, microtitre technique (Example 53); format: cell-based
From the text: (§1) The results were obtained by the microtitre technique with an inoculum of 1/500 of overnight broth.

Klebsiella aerogenes E70 = test: MIC, microtitre technique (Example 53); format: cell-based
From the text: as §1

[3] = tested on: Staphylococcus aureus (Russell); test: MIC / synergism with methyl ester (Example 32); format: cell-based; conditions: in the presence of 1.0 μg/ml. clavulanic acid methyl ester
Proteus mirabilis C889 = test: MIC / synergism with methyl ester (Example 32); format: cell-based; conditions: in the presence of 5 μg/ml. clavulanic acid methyl ester
[4] = target: T1, β-lactamase produced by Escherichia coli JT4 (Escherichia coli, UniProt P62593); test: β-lactamase inhibition assay (Description 1); format: biochemical
T1 construct: This cell suspension was then disrupted in an MSE ultrasonic disintegrator at 4° C; endogenous in cells; host or cells: Escherichia coli JT4 (ampicillin-resistant, R-factor), supernatant of sonicated cells
Method: During this time, enzyme inhibition or inactivation occurs. Substrate (benzylpenicillin) is then added and incubation continued for 30 minutes at 37° C. The amount of enzymic degradation of the substrate to penicilloic acid is determined by the hydroxylamine assay for penicillin. The amount of β-lactamase used is such as to give 75% hydrolysis of the benzylpenicillin in 30 minutes at 37° C.
(§2) The extent of hydrolysis is a reflection of the amount of enzyme remaining uninhibited.
The β-lactamase produced by Escherichia coli JT4 is used as an enzyme. […] Other similar R-factor controlled β-lactamases may be used if desired.
The culture maintained on nutrient agar slopes, is inoculated into 400 ml. of sterile Tryptone medium contained in a 2 liter conical flask. This medium has the following composition Tryptone (Oxoid) 32 g/l, yeast extract (Oxoid) 20 g/l, NaCl 5 g/l and CaCl2 6H2 O 2.2 g/l. The final pH was adjusted to 7.4 with dilute NaOH. The flask is shaken at 25° C for 20 hours on a rotary shaker at 240 r.p.m. […]
Suitable dilutions of the inhibitor preparation and β-lactamase solution are mixed and incubated at 37° C for 15 minutes (Test). […] The absorption of the final solutions is measured in an E.E.L. Colorimeter or a Spectrophotometer at 490 nm against the reagent blank.
The percentage inhibition of the β-lactamase is calculated as follows […]

[5] = target: T2, β-lactamase of Staphylococcus aureus (Russell) (Staphylococcus aureus, UniProt P00807); test: β-lactamase inhibition assay; format: biochemical; conditions: standard enzyme inhibitory assay (Example 49); read-out: I50 (converted)
T2 construct: endogenous in cells; host or cells: Staphylococcus aureus (Russell)
Method: Solutions containing clavulanic acid (culture filtrate, samples from isolation procedure and the like) are incubated for 15 minutes with a β-lactamase preparation in 0.05M phosphate buffer at pH 7 and 37° C. During this time, enzyme inhibition or inactivation occurs. Substrate (benzylpenicillin) is then added and incubation continued for 30 minutes at 37° C. The amount of enzymic degradation of the substrate to penicilloic acid is determined by the hydroxylamine assay for penicillin. The amount of β-lactamase used is such as to give 75% hydrolysis of the benzylpenicillin in 30 minutes at 37° C.
as §2
Suitable dilutions of the inhibitor preparation and β-lactamase solution are mixed and incubated at 37° C for 15 minutes (Test). A control with buffer in place of inhibitor preparation is also incubated. Benzylpenicillin solution (substrate) is then added to test and control mixtures, incubation continued for a further 30 minutes at 37° C. […] 6 ml. of hydroxylamine reagent are added to all tests, controls and blanks and are allowed to react for 10 minutes at room temperature prior to the addition of 2 ml of ferric ammonium sulphate reagent. The absorption of the final solutions is measured in an E.E.L. Colorimeter or a Spectrophotometer at 490 nm against the reagent blank.

[6] = tested on: Staphylococcus aureus(Russell); test: MIC / synergism, microtitre method (Example 42); format: cell-based; conditions: synergist (clavulanic acid sodium salt) added at 1 μg/ml. instead of 5 μg/ml.
[7] = hydrolysis of ester in phosphate buffer pH 7; format: physicochemical; conditions: 1 mg/ml., 37° C, 0.05M phosphate buffer at pH 7, followed over 2 hours by paper chromatography
Method: The reaction was followed by paper chromatography (bioautographic system). Using the butanol/ethanol/water system to follow the reaction over a period of 2 hours the zone of the methyl ester at Rf 0.79 decreased in size as the zone of clavulanic acid at Rf 0.12 increased.

[8] = head prints sodium clavulanate, title sodium isoclavulanate, inoculum 1/500

T1 sequence (P62593 24-286 limits assumed): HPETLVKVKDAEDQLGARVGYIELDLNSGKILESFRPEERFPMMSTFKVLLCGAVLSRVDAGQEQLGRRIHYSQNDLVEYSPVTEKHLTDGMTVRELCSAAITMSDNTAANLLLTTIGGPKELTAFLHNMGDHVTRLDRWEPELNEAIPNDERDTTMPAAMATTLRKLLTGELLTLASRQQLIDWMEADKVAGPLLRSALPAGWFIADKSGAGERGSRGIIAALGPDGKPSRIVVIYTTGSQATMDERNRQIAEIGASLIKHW
T2 sequence (P00807 25-281): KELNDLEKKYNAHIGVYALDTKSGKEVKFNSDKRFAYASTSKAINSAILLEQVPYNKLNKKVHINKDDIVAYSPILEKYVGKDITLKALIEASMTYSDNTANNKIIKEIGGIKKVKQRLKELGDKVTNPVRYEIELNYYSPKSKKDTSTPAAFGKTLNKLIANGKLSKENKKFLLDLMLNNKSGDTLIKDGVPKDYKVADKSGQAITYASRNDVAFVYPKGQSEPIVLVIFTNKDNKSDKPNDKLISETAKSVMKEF

CC1(C)S[C@@H]2[C@H](NC(=O)[C@H](N)c3ccccc3)C(=O)N2[C@H]1C(=O)O [Ampicillin, ampicillin]
MIC of Ampicillin + 5 μg/ml of Benzyl Ester of clavulanic acid (Klebsiella aerogenes A): 1.9
MIC of Ampicillin + 5 μg/ml of Methyl Ester of clavulanic acid (Klebsiella aerogenes A): 1.9
MIC of Ampicillin + 5 μg/ml of Benzyl Ester of clavulanic acid [1]: 3.9
MIC of Ampicillin + 5 μg/ml of Methyl Ester of clavulanic acid [1]: 3.9
MIC of Ampicillin + 5 μg/ml of Benzyl Ester of clavulanic acid (Klebsiella aerogenes 62): 3.9
MIC of Ampicillin + 5 μg/ml of Methyl Ester of clavulanic acid (Klebsiella aerogenes 62): 3.9
MIC of Ampicillin + 1μg/ml sodium clavulanate [2, 8]: 3.9 µg/mL
MIC of Ampicillin + 5μg/ml sodium clavulanate [2, 8]: 0.78 µg/mL
MIC of Ampicillin + 20μg/ml sodium clavulanate [2, 8]: 0.39 µg/mL
MIC of Ampicillin + 1μg/ml sodium clavulanate (Klebsiella aerogenes E70; [8]): 15.6 µg/mL
MIC of Ampicillin + 20μg/ml sodium clavulanate (Klebsiella aerogenes E70; [8]): 6.2 µg/mL
minimum inhibitory concentration (M.I.C.) of antibiotic in presence of synergist [3]: < 0.4 µg/mL
minimum inhibitory concentration (M.I.C.) of antibiotic in presence of synergist (Proteus mirabilis C889): 31 µg/mL

O=C(COc1ccccc1)OC/C=C1\O[C@@H]2CC(=O)N2[C@H]1C(=O)OCc1ccccc1 [Benzyl phenoxyacetylclavulanate]
IC50 ([4]; benzylpenicillin substrate, 15 min preincubation, pH 7, 37° C): 5.9 µM
IC50 [5]: 17.7 µM

O=C(Cc1cccs1)N[C@@H]1C(=O)N2C(C(=O)[O-])=C(C[n+]3ccccc3)CS[C@H]12 [Cephaloridine, cephaloridine]
Minimum Inhibitory Concentration of cephaloridine in presence of synergist [6]: Same value

COC(=O)[C@H]1/C(=C/CO)O[C@@H]2CC(=O)N21 [clavulanic acid methyl ester]
hydrolysis of the ester to clavulanic acid [7]: Slow conversion of the ester to clavulanic acid

O=C(O)[C@H]1/C(=C/CO)O[C@@H]2CC(=O)N21 [clavulanic acid sodium salt, 3-(β-hydroxyethylidine)-7-oxo-4-oxa-1-azabicyclo [3,2,0]heptane-2-carboxylic acid sodium salt]
MIC ([2]; Staphylococcus aureus, compound alone, inoculum of 1/500 of overnight broth): 125 µg/mL
MIC (Klebsiella aerogenes E70; Klebsiella aerogenes, E70): 500 µg/mL

O=C(O)[C@H]1/C(=C/CO)O[C@@H]2CC(=O)N21 [clavulanic acid, Z-(2R,5R)-3-(β-hydroxyethylidene)-7-oxo-4-oxa-1-azabicyclo[3,2,0]heptane-2-carboxylic acid]
mode of inhibition of the β-lactamase [4]: progressively and irreversibly inhibits

From patent publication US4123540A, “Isoclavulanic acid as an antibacterial and a β-lactamase inhibitor” (Beecham Group Limited, priority 1974, dated 1978)
